In patent US7868135B2, “Compositions of lipopeptide antibiotic derivatives and methods of use thereof” (priority 2003, dated 2011):
Starred links: 1 amine or outer side, 2 acyl side, 3 side chain; linkers in the order of their positions; H or OH if unused. Positions of bridges follow the written chain, without caps; N, C: chain ends. Non-standard residues stand in square brackets, D forms with d. Residues, ends and D or L forms follow the SMILES beside them. ξ: configuration not given here. *: point of attachment. X28 = CCCCCCCC(=O)Nc1cc(NC(=O)CCCCCCC)cc(C(=O)*)c1; ξAbu(βξ-NH2) = CC(N[*:3])C(N[*:1])C(=O)[*:2]; Phac(3-amino) = O=C(Cc1cccc(N[*:1])c1)[*:2]; Pentadecanoyl = CCCCCCCCCCCCCCC(=O)*; ξAsp(βξ-Me) = CC(C(=O)O)C(N)C(=O)O; Tridecanoyl = CCCCCCCCCCCCC(=O)*; X1 = O=C(Cc1ccc(N[*:1])cc1)[*:2]; X5 = CCCCCCCCCCCCn1cc(C(=O)*)nn1; Myristoyl = CCCCCCCCCCCCCC(=O)*; NHtetradecyl = CCCCCCCCCCCCCCN*; ξAbu(3ξ-NH2) = CC(N)C(N)C(=O)O; Undecanoyl = CCCCCCCCCCC(=O)*; Lauroyl = CCCCCCCCCCCC(=O)*; Decanoyl = CCCCCCCCCC(=O)*; 3Abz = Nc1cccc(C(=O)O)c1; Pip = O=C(O)[CH]1CCCCN1; ξD = NC(CC(=O)O)C(=O)O; ξPip = O=C(O)C1CCCCN1; CO = O=C([*:1])[*:2]; ξV = CC(C)C(N)C(=O)O; ξP = O=C(O)C1CCCN1; OtBu = CC(C)(C)O*

What follows are molecules tested on Staphylococcus aureus (MSSA). Details: 24 h.
Summary of the method: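 Broth microdilution MIC per NCCLS M7-A6 with doubling serial dilutions, in cation-adjusted Mueller-Hinton broth supplemented with 0.625 mM calcium.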

First: CCCCCCCCCCCNC(=O)NCCC(=O)NC(CC(=O)O)C(=O)NC1C(=O)N2CCCCC2C(=O)NC(C(C)C(=O)O)C(=O)NC(CC(=O)O)C(=O)NCC(=O)NC(CC(=O)O)C(=O)NCC(=O)NC(C(C)N)C(=O)NC(C(C)C)C(=O)N2CCCC2C(=O)NC1C (stereo not drawn) [Compound 286, CH3—(CH2)10—NH—C(═O)-(β-Ala)-Amphomycin]
Second: CCCCCCCCCCCNC(=O)NCCCC(=O)NC(CC(=O)O)C(=O)NC1C(=O)N2CCCCC2C(=O)NC(C(C)C(=O)O)C(=O)NC(CC(=O)O)C(=O)NCC(=O)NC(CC(=O)O)C(=O)NCC(=O)NC(C(C)N)C(=O)NC(C(C)C)C(=O)N2CCCC2C(=O)NC1C (centres unmarked) [Compound 304, CH3—(CH2)10—NH—C(═O)-GABA-Amphomycin]
The MIC of the first is 2-fold lower: 2 µg/mL for the first, 4 µg/mL for the second.

Going from CCCCCCCCCCCCCCNC(=O)NCCCC(=O)NC(CC(=O)O)C(=O)NC1C(=O)N2CCCCC2C(=O)NC(C(C)C(=O)O)C(=O)NC(CC(=O)O)C(=O)NCC(=O)NC(CC(=O)O)C(=O)NCC(=O)NC(C(C)N)C(=O)NC(C(C)C)C(=O)N2CCCC2C(=O)NC1C (centres unmarked) [Compound 291, CH3—(CH2)13—NH—C(═O)-(GABA)-Amphomycin] to CCCCCCCCCCCCCCNC(=O)NCCC(=O)NC(CC(=O)O)C(=O)NC1C(=O)N2CCCCC2C(=O)NC(C(C)C(=O)O)C(=O)NC(CC(=O)O)C(=O)NCC(=O)NC(CC(=O)O)C(=O)NCC(=O)NC(C(C)N)C(=O)NC(C(C)C)C(=O)N2CCCC2C(=O)NC1C (stereo not drawn) [Compound 295, CH3—(CH2)13—NH—C(═O)-(β-Ala)-Amphomycin], the MIC falls from 2 µg/mL to 0.5 µg/mL (4-fold).

Compared with CCCCCCCCCC(=O)Nc1cccc(C(=O)NC(CC(=O)O)C(=O)NC2C(=O)N3CCCCC3C(=O)NC(C(C)C(=O)O)C(=O)NC(CC(=O)O)C(=O)NCC(=O)NC(CC(=O)O)C(=O)NCC(=O)NC(C(C)N)C(=O)NC(C(C)C)C(=O)N3CCCC3C(=O)NC2C)c1 (stereo not drawn) [Compound 293, C10-(M-Aminobenzoyl)-Amphomycin] ({Decanoyl-3Abz}-D[ξAbu(βξ-NH2)][Pip][ξAsp(βξ-Me)]DGDG[ξAbu(3ξ-NH2)]VP; lactam 2-C; configuration not given here), CCCCCCCCCCC(=O)Nc1cccc(C(=O)NC(CC(=O)O)C(=O)NC2C(=O)N3CCCCC3C(=O)NC(C(C)C(=O)O)C(=O)NC(CC(=O)O)C(=O)NCC(=O)NC(CC(=O)O)C(=O)NCC(=O)NC(C(C)N)C(=O)NC(C(C)C)C(=O)N3CCCC3C(=O)NC2C)c1 (stereo not drawn) [Compound 294, C11-(M-Aminobenzoyl)-Amphomycin] ({Undecanoyl-3Abz}-D[ξAbu(βξ-NH2)][Pip][ξAsp(βξ-Me)]DGDG[ξAbu(3ξ-NH2)]VP; lactam 2-C; configuration not given here) is 4-fold lower in MIC: 2 µg/mL for the first, 0.5 µg/mL for the second.

CCCCCCCCCCCC(=O)Nc1cccc(C(=O)NC(CC(=O)O)C(=O)NC2C(=O)N3CCCCC3C(=O)NC(C(C)C(=O)O)C(=O)NC(CC(=O)O)C(=O)NCC(=O)NC(CC(=O)O)C(=O)NCC(=O)NC(C(C)N)C(=O)NC(C(C)C)C(=O)N3CCCC3C(=O)NC2C)c1 (stereo not drawn) [Compound 296, C12-(M-Aminobenzoyl)-Amphomycin] ({Lauroyl-3Abz}-D[ξAbu(βξ-NH2)][Pip][ξAsp(βξ-Me)]DGDG[ξAbu(3ξ-NH2)]VP; lactam 2-C; configuration not given here) and CCCCCCCCCCCCC(=O)Nc1cccc(C(=O)NC(CC(=O)O)C(=O)NC2C(=O)N3CCCCC3C(=O)NC(C(C)C(=O)O)C(=O)NC(CC(=O)O)C(=O)NCC(=O)NC(CC(=O)O)C(=O)NCC(=O)NC(C(C)N)C(=O)NC(C(C)C)C(=O)N3CCCC3C(=O)NC2C)c1 (stereo not drawn) [Compound 297, C13-(M-Aminobenzoyl)-Amphomycin] ({Tridecanoyl-3Abz}-D[ξAbu(βξ-NH2)][Pip][ξAsp(βξ-Me)]DGDG[ξAbu(3ξ-NH2)]VP; lactam 2-C; configuration not given here) are the same in MIC: 0.25 µg/mL for the first, 0.25 µg/mL for the second.

First: CCCCCCCCCCCCC(=O)Nc1ccc(CC(=O)NC(CC(=O)O)C(=O)NC2C(=O)N3CCCCC3C(=O)NC(C(C)C(=O)O)C(=O)NC(CC(=O)O)C(=O)NCC(=O)NC(CC(=O)O)C(=O)NCC(=O)NC(C(C)N)C(=O)NC(C(C)C)C(=O)N3CCCC3C(=O)NC2C)cc1 (stereo not drawn) [Compound 300, C13-(p-Apa)-Amphomycin] (Tridecanoyl-[X1]D[ξAbu(βξ-NH2)][Pip][ξAsp(βξ-Me)]DGDG[ξAbu(3ξ-NH2)]VP; lactam 3-C; configuration not given here)
Second: CCCCCCCCCCCCCC(=O)Nc1ccc(CC(=O)NC(CC(=O)O)C(=O)NC2C(=O)N3CCCCC3C(=O)NC(C(C)C(=O)O)C(=O)NC(CC(=O)O)C(=O)NCC(=O)NC(CC(=O)O)C(=O)NCC(=O)NC(C(C)N)C(=O)NC(C(C)C)C(=O)N3CCCC3C(=O)NC2C)cc1 (stereo not drawn) [Compound 301, C14-(p-Apa)-Amphomycin] (Myristoyl-[X1]D[ξAbu(βξ-NH2)][Pip][ξAsp(βξ-Me)]DGDG[ξAbu(3ξ-NH2)]VP; lactam 3-C; configuration not given here)
The MIC of the first is 8.9-fold lower: 0.225 µg/mL for the first, 2 µg/mL for the second.

Compared with CCCCCCCCCCCCCC(=O)Nc1cccc(CC(=O)NC(CC(=O)O)C(=O)NC2C(=O)N3CCCCC3C(=O)NC(C(C)C(=O)O)C(=O)NC(CC(=O)O)C(=O)NCC(=O)NC(CC(=O)O)C(=O)NCC(=O)NC(C(C)N)C(=O)NC(C(C)C)C(=O)N3CCCC3C(=O)NC2C)c1 (stereo not drawn) [Compound 303, C14-(M-Apa)-Amphomycin] (Myristoyl-[Phac(3-amino)]D[ξAbu(βξ-NH2)][Pip][ξAsp(βξ-Me)]DGDG[ξAbu(3ξ-NH2)]VP; lactam 3-C; configuration not given here), CCCCCCCCCCCCCCC(=O)Nc1cccc(CC(=O)NC(CC(=O)O)C(=O)NC2C(=O)N3CCCCC3C(=O)NC(C(C)C(=O)O)C(=O)NC(CC(=O)O)C(=O)NCC(=O)NC(CC(=O)O)C(=O)NCC(=O)NC(C(C)N)C(=O)NC(C(C)C)C(=O)N3CCCC3C(=O)NC2C)c1 (stereo not drawn) [Compound 310, C15-(M-Apa)-Amphomycin] (Pentadecanoyl-[Phac(3-amino)]D[ξAbu(βξ-NH2)][Pip][ξAsp(βξ-Me)]DGDG[ξAbu(3ξ-NH2)]VP; lactam 3-C; configuration not given here) is 2-fold higher in MIC: 0.5 µg/mL for the first, 1 µg/mL for the second.

CCCCCCCC(=O)Nc1cc(NC(=O)CCCCCCC)cc(C(=O)NC(CC(=O)O)C(=O)NC2C(=O)N3CCCCC3C(=O)NC(C(C)C(=O)O)C(=O)NC(CC(=O)O)C(=O)NCC(=O)NC(CC(=O)O)C(=O)NCC(=O)NC(C(C)N)C(=O)NC(C(C)C)C(=O)N3CCCC3C(=O)NC2C)c1 (stereo not drawn) [Compound 305, N,N′-di-C8-(M,M-Diaminobenzoyl)-Amphomycin] (X28-D[ξAbu(βξ-NH2)][Pip][ξAsp(βξ-Me)]DGDG[ξAbu(3ξ-NH2)]VP; lactam 2-C; configuration not given here) and CCCCCCCCCCCCCCC(=O)Nc1ccc(CC(=O)NC(CC(=O)O)C(=O)NC2C(=O)N3CCCCC3C(=O)NC(C(C)C(=O)O)C(=O)NC(CC(=O)O)C(=O)NCC(=O)NC(CC(=O)O)C(=O)NCC(=O)NC(C(C)N)C(=O)NC(C(C)C)C(=O)N3CCCC3C(=O)NC2C)cc1 (stereo not drawn) [Compound 312, C15-(p-Apa)-Amphomycin] (Pentadecanoyl-[X1]D[ξAbu(βξ-NH2)][Pip][ξAsp(βξ-Me)]DGDG[ξAbu(3ξ-NH2)]VP; lactam 3-C; configuration not given here) are the same in MIC: 1 µg/mL for the first, 1 µg/mL for the second.

CCCCCCCCCCCCCCNC(=O)NCC(=O)NC(CC(=O)O)C(=O)NC1C(=O)N2CCCCC2C(=O)NC(C(C)C(=O)O)C(=O)NC(CC(=O)O)C(=O)NCC(=O)NC(CC(=O)O)C(=O)NCC(=O)NC(C(C)N)C(=O)NC(C(C)C)C(=O)N2CCCC2C(=O)NC1C (stereo not drawn) [Compound 307, CH3—(CH2)13—NH—C(═O)-Gly-Amphomycin] ({NHtetradecyl-CO}-GD[ξAbu(βξ-NH2)][Pip][ξAsp(βξ-Me)]DGDG[ξAbu(3ξ-NH2)]VP; lactam 3-C; configuration not given here) and CCCCCCCCCCCCCCC(=O)N[C@@H](CC(=O)OC)C(=O)NC(CC(=O)O)C(=O)NC1C(=O)N2CCCCC2C(=O)NC(C(C)C(=O)O)C(=O)NC(CC(=O)O)C(=O)NCC(=O)NC(CC(=O)O)C(=O)NCC(=O)NC(C(C)N)C(=O)NC(C(C)C)C(=O)N2CCCC2C(=O)NC1C (stereo partly drawn) [Compound 313, C15-(Asp-(OME))-Amphomycin] (Pentadecanoyl-D(OMe)[ξD][ξAbu(βξ-NH2)][ξPip][ξAsp(βξ-Me)][ξD]G[ξD]G[ξAbu(3ξ-NH2)][ξV][ξP]; lactam 3-C) cannot be ordered by MIC: 0.5 µg/mL for the first, 0.5 to 1 µg/mL for the second.

Going from CCCCCCCCCCCCn1cc(C(=O)NC(CC(=O)O)C(=O)NC2C(=O)N3CCCCC3C(=O)NC(C(C)C(=O)O)C(=O)NC(CC(=O)O)C(=O)NCC(=O)NC(CC(=O)O)C(=O)NCC(=O)NC(C(C)N)C(=O)NC(C(C)C)C(=O)N3CCCC3C(=O)NC2C)nn1 (stereo not drawn) [Compound 309, 1-Dodecyl-1H-(1,2,3)-Triazole-4-Carboxyl-Amphomycin] (X5-D[ξAbu(βξ-NH2)][Pip][ξAsp(βξ-Me)]DGDG[ξAbu(3ξ-NH2)]VP; lactam 2-C; configuration not given here) to CCCCCCCCCCCCC(=O)N[C@@H](CC(=O)OC)C(=O)NC(CC(=O)O)C(=O)NC1C(=O)N2CCCCC2C(=O)NC(C(C)C(=O)O)C(=O)NC(CC(=O)O)C(=O)NCC(=O)NC(CC(=O)O)C(=O)NCC(=O)NC(C(C)N)C(=O)NC(C(C)C)C(=O)N2CCCC2C(=O)NC1C (stereo partly drawn) [Compound 311, C13-(Asp-(OMe))-Amphomycin] (Tridecanoyl-D(OMe)[ξD][ξAbu(βξ-NH2)][ξPip][ξAsp(βξ-Me)][ξD]G[ξD]G[ξAbu(3ξ-NH2)][ξV][ξP]; lactam 3-C), the MIC rises from 1 µg/mL to 8 µg/mL (8-fold).

First: CCCCCCCCCCC(=O)N[C@@H](CC(=O)OC(C)(C)C)C(=O)NC(CC(=O)O)C(=O)NC1C(=O)N2CCCCC2C(=O)NC(C(C)C(=O)O)C(=O)NC(CC(=O)O)C(=O)NCC(=O)NC(CC(=O)O)C(=O)NCC(=O)NC(C(C)N)C(=O)NC(C(C)C)C(=O)N2CCCC2C(=O)NC1C (stereo partly drawn) [Compound 314, C11-(Asp-(OtBu))-Amphomycin] (Undecanoyl-D(OtBu)[ξD][ξAbu(βξ-NH2)][ξPip][ξAsp(βξ-Me)][ξD]G[ξD]G[ξAbu(3ξ-NH2)][ξV][ξP]; lactam 3-C)
Second: CCCCCCCCCCCCC(=O)N[C@@H](CC(=O)OC(C)(C)C)C(=O)NC(CC(=O)O)C(=O)NC1C(=O)N2CCCCC2C(=O)NC(C(C)C(=O)O)C(=O)NC(CC(=O)O)C(=O)NCC(=O)NC(CC(=O)O)C(=O)NCC(=O)NC(C(C)N)C(=O)NC(C(C)C)C(=O)N2CCCC2C(=O)NC1C (stereo partly drawn) [Compound 315, C13-(Asp-(OtBu))-Amphomycin] (Tridecanoyl-D(OtBu)[ξD][ξAbu(βξ-NH2)][ξPip][ξAsp(βξ-Me)][ξD]G[ξD]G[ξAbu(3ξ-NH2)][ξV][ξP]; lactam 3-C)
The MIC of the first is 8-fold higher: 8 µg/mL for the first, 1 µg/mL for the second.
